Values quoted from earlier work as cited in patent US20240024348A1, “METHODS AND COMPOSITIONS FOR THE TREATMENT OF GLAUCOMA AND RELATED CONDITIONS” (Ophthalmic Therapeutic Innovation, priority 2022, published 2024).
“Also recorded” adds a separate entry of the source. Like-named read-outs stand apart in the source and are kept apart here.

Tests used:
human TM cell [1] = conditions: high concentration (10 ug/mL); cited from earlier work
[2] = tested on: ischemia-reperfusion rodent model; conditions: cited from earlier work
[3] = tested on: patients with refractory glaucoma; conditions: two individual patients with refractory glaucoma; cited from earlier work
[4] = tested on: patients or human subjects; conditions: cited from earlier work; for conjunctiva hyperemia: eye drops, clinical trials
patient with NTG = conditions: cited from earlier work
young and aged C57 mice = conditions: 7 days, cited from earlier work
[5] = tested on: Dutch-belted pigmented and normotensive rabbit eyes; conditions: single dose 0.6% eye drop, cited from earlier work
light damaged rat models = conditions: cited from earlier work
[6] = tested on: POAG/OH patients with Latanoprost poor responders; conditions: cited from earlier work
human TM cell [7] = conditions: human TM cell culture; cited from earlier work
aged mice = conditions: 6% treatment, vs placebo treated eyes; cited from earlier work
rat = conditions: cited from earlier work
NAION mice model = conditions: cited from earlier work
patients = conditions: 3% QD and 6% QD with 0.005% QD Lantanoprost; cited from earlier work
patients with POAG/OH = conditions: cited from earlier work; for IOP reduction: Ph2, 1.5% BID
[8] = human donor eyes; cited from earlier work

For `CCNC(=O)CCC/C=C\C[C@@H]1[C@@H](/C=C/[C@@H](O)CCc2ccccc2)[C@H](O)C[C@@H]1O` [Bimatoprost], the MMP-9 expression (human TM cell [1]) is listed as “upregulates MMP-9 expression”.

For `Brc1c(NC2=NCCN2)ccc2nccnc12` [Brimonidine, reference compound], the “protection of RGC and outer layer photoreceptors” value [2] is listed as “lacks effects toward the outer layer photoreceptor cells” and the “protection of RGC and outer layer photoreceptors” value ([2]; listed as brimonidine) is listed as “did not protect photoreceptor loss”.

For `CC(C)OC(=O)CCC/C=C\C[C@@H]1[C@@H](CC[C@@H](O)CCc2ccccc2)[C@H](O)C[C@@H]1O` [Latanoprost], the MMP-9 expression (human TM cell [1]) is listed as “upregulates MMP-9 expression”.

For `CCCCCCCC(=O)CC[C@@H]1[C@@H](C/C=C\CCCC(=O)OC(C)C)[C@@H](O)C[C@H]1O` [Rescula], the IOP profile [3] is listed as “slow mode and accumulative improvement over time”.

In the case of `Cc1ccc(C(=O)OCc2ccc([C@@H](CN)C(=O)Nc3ccc4cnccc4c3)cc2)c(C)c1` [Rhopressa, reference compound], the conjunctiva hyperemia [4] is listed as 50%.

In the case of `O=C(CCC/C=C\C[C@@H]1[C@@H](CC[C@@H](O)CCc2ccccc2)[C@H](O)C[C@@H]1O)OCCCCO[N+](=O)[O-]` [Vyzulta, Latanoprost Bunod], the IOP improvement (patient with NTG; during the first 12-week of 12-month study, Japanese population) is given as “less than 1.0 mmHg” and the IOP improvement (patient with NTG; within the first 12-week of 12-month study) is given as roughly 0.6 mmmHg.

In the case of Trabodenoson, the “IOP reduction over time” value (young and aged C57 mice; 3% QD, young C57 mice) is given as “sustained over 7 days”, the “IOP lowering effect over time” value (young and aged C57 mice; 6% QD, aged C57 mice) is given as “slowly diminished at day 7” and the “IOP reduction from the baseline” value ([5]; at 2 hours) is given as 25%-27%. For the same molecule, the “time of IOP return to the baseline” value [5] was 6 h, the photoreceptor cell loss (light damaged rat models) was “rescuing photoreceptor cell loss” and the “protection of RGC and outer layer photoreceptors” value [2] was “demonstrated neural protection for both RGC inner layer of the neurons and the outer layer of neurons (photoreceptors); also recorded: more potent in rescuing and protecting the RGC and outer layer photoreceptors from apoptosis”. For the same molecule, the IOP time course ([6]; 1.5% BID 8 weeks then 3.0% QD 4 weeks, add-on to Latanoprost, 12 weeks) was “robust and continuous IOP improvement over the course of 12 weeks; also recorded: robust and incremental IOP improvement over a course of 12-week treatment time”, the “effectiveness POAG vs OH” value ([6]; Lantanoprost poor responders) was “more effective in patients with POAG than with OH” and the MMP-14 expression (human TM cell [7]) was “upregulating MMP-14 expression”. For the same molecule, the “collagen IV and fibronectin” value (human TM cell [7]) was “downregulation of collagen IV and fibronectin”, the “TM morphology / ECM” value (aged mice) was “TM mesh pores opening up and ECM remodeling with enlarged ECM space” and the heart rate (rat) was “reduces the heart rate in rat”. For the same molecule, the “axon loss and myelination damage of optic nerve (EM)” value (NAION mice model; 6% eye drops BID, vs placebo control) was “significant reduction of the axon loss and myelination damage”, the RGC neural protection (NAION mice model; NAION mice model) was “potent neural protectant for RGC cell rescue” and the “systemic clinical safety and ocular tolerability” value ([4]; 819 subjects, 2 weeks to 3 months, 0.15% BID to 6% QD, up to 18% single dose) was “excellent systemic clinical safety and ocular tolerability”. The conjunctiva hyperemia [4] was 2.56%, the “IOP efficacy of combination vs Lantanoprost alone” value (patients) was “less effective than 0.005% QD Lantanoprost alone” and the “IOP dose response curve (IOP reduction from baseline IOP)” value (patients with POAG/OH; 14-Day Phase 2 dose escalation, 0.15%, 0.3%, 0.6%, 1.5% BID) was 0.6% BID peaked at the top. The IOP reduction (patients with POAG/OH; day 14, baseline IOP>21 mmHg) was 6.5 mmHg, the IOP reduction (patients with POAG/OH; day 14, baseline IOP>25 mmHg) was greater than 7 mmHg and the “IOP improvement, day 28 vs Day 14” value (patients with POAG/OH; Phase 2, 1.5% BID eye drops, baseline IOP>21 mmHg, in 2 weeks) was 0.9 mmHg. The “IOP reduction POAG vs OH” value (patients with POAG/OH; Phase 2, 1.5% BID, early-stage population) was “higher IOP reduction in patients with POAG than that with OH”, the “IOP reduction from the diurnal IOP at day -1” value (patients with POAG/OH; Phase 2 dose escalation, Day 14) was 1.5% BID is more effective than 0.15% BID, 0.3% BID, 0.6% BID at Day 14 and the “Phase 3 IOP endpoint” value (patients with POAG/OH; Phase 3 clinical trials, 3 months) was “failed to meet the IOP endpoint at 3 months”. For the same molecule, the IOP time course (patients with POAG/OH; Phase 3 monotherapy, 6% QD, 3 months, vs placebo) was “incremental increase of the IOP reduction; also recorded: continuous IOP improvement over a course of 3 months with clinical significance compared to placebo”, the “maximal IOP reduction” value (patients with POAG/OH; eye drops 1.5% BID, day 28 (4 weeks), early stage POAG/OH) was 6-7 mmHg and the “time before reaching a steady state” value (patients with POAG/OH; eye drops, early stage POAG/OH with very mild damage) was “more than 3 months”.

B1: MMP-2: matrix metalloproteinase (protein, UniProt P08253 110-660, looked up)
72 kDa type IV collagenase: YNFFPRKPKWDKNQITYRIIGYTPDLDPETVDDAFARAFQVWSDVTPLRFSRIHDGEADIMINFGRWEHGDGYPFDGKDGLLAHAFAPGTGVGGDSHFDDDELWTLGEGQVVRVKYGNADGEYCKFPFLFNGKEYNSCTDTGRSDGFLWCSTTYNFEKDGKYGFCPHEALFTMGGNAEGQPCKFPFRFQGTSYDSCTTEGRTDGYRWCGTTEDYDRDKKYGFCPETAMSTVGGNSEGAPCVFPFTFLGNKYESCTSAGRSDGKMWCATTANYDDDRKWGFCPDQGYSLFLVAAHEFGHAMGLEHSQDPGALMAPIYTYTKNFRLSQDDIKGIQELYGASPDIDLGTGPTPTLGPVTPEICKQDIVFDGIAQIRGEIFFFKDRFIWRTVTPRDKPMGPLLVATFWPELPEKIDAVYEAPQEEKAVFFAGNEYWIYSASTLERGYPKPLTSLGLPPDVQRVDAAFNWSKNKKTYIFAGDKFWRYNEVKKKMDPGFPKLIADAWNAIPDNLDAVVDLQGGGHSYFFKGAYYLKLENQSLKSVKFGSIKSDWLGC
For B1, the “hydraulic conductance of Bruch's membrane” value [8] is given as “increases hydraulic conductance”.
